Test results: patent publication US11752111B2, “Use of cannabidivarin in the treatment of autism spectrum disorder, associated disorders and schizophrenia” (GW Research Limited, priority 2016, dated 2023)

How the values were obtained:
[1] = tested on: GFAP, CD11b, TNFα expression in the hippocampus; experiment: Neuroinflammation studies, hippocampus protein expression by Western blotting, prenatal VPA model; type: in vivo, rat
Method: At the end of the study, on PND 59, male rats treated with CBDV 20 mg/kg i.p. were sacrificed and the hippocampus was collected 24 hours after the last CBDV injection and stored at −80° C. for evaluation of changes in protein expression of components of the endocannabinoid system (CB1 and CB2 receptors, the endocannabinoid degrading enzymes, FAAH and MAGL and the synthetic enzymes, DAGLα and NAPE-PLD); neuroinflammatory markers (GFAP (astrocytic marker), Iba1 (microglial marker), CD11b (activated microglial marker), TNF-α (proinflammatory cytokine) and iNOS (inflammatory mediator)); synaptic markers (Synaptophysin (synaptic vesicle protein), PSD-95 (post synaptic density protein) and the neurotrophins, BDNF and IGF by Western blotting.

WT mice = experiment: Audiogenic seizure susceptibility, WT mice; type: in vivo, mouse; conditions: WT PND21
Method: This trait was evaluated in PND21 mice after acute administration of the compounds or its vehicle, 30 min before starting the procedure. To measure audiogenic seizure sensitivity mice were placed individually into a novel environment, a glass cylinder (40 cm high, 16 cm diameter) and allowed to explore for 1 min. Next, a bell (100 dB) was rung for 30 sec and seizure activity scored according to the following scale: no response, 0; wild running, 1; clonic seizure, 2; tonic seizure, 3; status epilepticus/respiratory arrest/death, 4.
On postnatal day 21 (PND21) WT and Fmr1 KO mice were injected with CBDV (2, 10, 20 or 100 mg/kg) or vehicle, 30 min before exposure to a bell ring (100 dB). Mice exposed to this noise for 30 sec ceased from their normal exploratory behaviour and reacted with gradually to wild-running, clonic seizure, tonic seizure or death. The maximum response was annotated for each mouse as detailed in Table 2 below. A score was calculated according to the severity of the symptoms as explained in the Methods section.

MeCP2 KO mice [2] = experiment: Survival in Rett syndrome model; type: in vivo, mouse
Method: (§1) CBDV was administered daily at the dose of 2, 20 and 200 mg/kg i.p. starting from PND 28 and the following signs were scored every other day: hindlimb clasping (indication of motor imbalance), tremor, gait (measure of coordination), breathing, mobility and general condition.
(§2) Starting from PND 28, mice received a daily intraperitoneal injection of CBDV (or vehicle) at the dose of 2, 20 and 200 mg/kg. Animals were then scored every other day to evaluate the effect of CBDV treatment on motor symptoms (hindlimb clasping, gait, mobility) as well as neurological signs and general conditions (breathing abnormalities, tremors and general condition) present in MeCP2 knockout (KO) mice.

MeCP2 KO mice [3] = experiment: Symptom scoring in Rett syndrome model; type: in vivo, mouse
Method: as §1, §2
Each of the six symptoms was scored from 0 to 2 (0 corresponds to the symptom being absent or the same as in the wild type (WT) animal; 1 when the symptom was present; 2 when the symptom was severe).
Mobility: the mouse is observed when placed on bench, then when handled gently. 0=as WT. 1=reduced movement when compared with WT: extended freezing period when first placed on bench and longer periods spent immobile. 2=no spontaneous movement when placed on the bench; mouse can move in response to a gentle prod or a food pellet placed nearby.
Gait: 0=as WT. 1=hind legs are spread wider than WT when walking or running with reduced pelvic elevation, resulting in a ‘waddling’ gait. 2=more severe abnormalities: tremor when feet are lifted, walks backward or ‘bunny hops’ by lifting both rear feet at once.
Hindlimb clasping: mouse observed when suspend by holding base of the tail. 0=legs splayed outward. 1=hindlimbs are drawn toward each other (without touching) or one leg is drawn into the body. 2=both legs are pulled in tightly, either touching each other or touching the body.
Tremor: mouse observed while standing on the flat palm of the hand. 0=no tremor. 1=intermittent mild tremor. 2=continuous tremor or intermittent violent tremor.
Breathing: movement of flanks observed while animal is standing still. 0=normal breathing. 1=periods of regular breathing interspersed with short periods of more rapid breathing or with pauses in breathing. 2=very irregular breathing-gasping or panting.
General condition: mouse observed for indicators of general well-being such as coat condition, eyes and body stance. 0=clean shiny coat, clear eyes, and normal stance. 1=eyes dull, coat dull/un-groomed, and somewhat hunched stance. 2=eyes crusted or narrowed, piloerection, and hunched posture.

Ube3am-/p+ (AS) mice = experiment: Clasping test in Angelman syndrome model; type: in vivo, mouse; conditions: CBDV 20 mg/kg i.p. chronic treatment (30 days); AS mice at 10 weeks of age vs AS vehicle
Method: Heterozygous mice with maternal deficiency of Ube3A (Ube3am−/p+) and wild type (Ube3am+/p+) were purchased from The Jackson Laboratory (Jackson code: B6.129S7-Ube3a tm1Alb/J) and maintained in a C57BL/6 background.
Drugs were dissolved in 1:1:18 ethanol:cremophor:0.9% saline, for intraperitoneal (i.p.) administration. […] CBDV was administered at 20 mg/kg.
Clasping: The clasping test assesses ataxia in mice. Mice were suspended by the base of the tail and their behaviours were recorded for 30 seconds. The time for which the mice clasped their hind limbs was recorded. The time was then scored as follows: 4, 15-30 s, 3, 10-15 s, 2, 5-10 s, 1, 0-5 s and 0,0 s

Question: For `C=C(C)[C@@H]1CCC(C)=C[C@H]1c1c(O)cc(CCC)cc1O` [CBDV, Cannabidivarin], which “expression of inflammatory markers that were increased (GFAP, CD11b, TNFα) in hippocampus (FIG. 2D)” value ([1]; chronic CBDV 20 mg/kg i.p., male VPA-exposed rats) is on record?
Answer: completely normalised

Question: And the “expression of inflammatory markers in hippocampus (FIG. 2D)” value ([1]; chronic CBDV, control rats)?
Answer: no effect

Question: What about the “maximum response: Clonic seizure (number of mice)” value (from here on “maximum response: Clonic seizure”) (WT mice; CBDV 2 mg/kg acute, n = 6) of the same molecule?
Answer: 0

Question: And the “maximum response: Death (number of mice)” value (WT mice; CBDV 2 mg/kg acute, n = 6)?
Answer: 0

Question: What about the “maximum response: Tonic seizure (number of mice)” value (“maximum response: Tonic seizure” for short) (WT mice; CBDV 2 mg/kg acute, n = 6) of the same molecule?
Answer: 0

Question: And the “maximum response: Wild running (number of mice)” value (“maximum response: Wild running” below) (WT mice; CBDV 2 mg/kg acute, n = 6)?
Answer: 0

Question: What about the “maximum response: Clonic seizure” value (WT mice; CBDV 10 mg/kg acute, n = 5) of the same molecule?
Answer: 0

Question: What about the “maximum response: Death (number of mice)” value (WT mice; CBDV 10 mg/kg acute, n = 5) of the same molecule?
Answer: 0

Question: What about the “maximum response: Tonic seizure” value (WT mice; CBDV 10 mg/kg acute, n = 5) of the same molecule?
Answer: 0

Question: And the “maximum response: Wild running” value (WT mice; CBDV 10 mg/kg acute, n = 5)?
Answer: 0

Question: What about the “maximum response: Clonic seizure” value (WT mice; CBDV 20 mg/kg acute, n = 6) of the same molecule?
Answer: 0

Question: What about the “maximum response: Death (number of mice)” value (WT mice; CBDV 20 mg/kg acute, n = 6) of the same molecule?
Answer: 0

Question: And the “maximum response: Tonic seizure” value (WT mice; CBDV 20 mg/kg acute, n = 6)?
Answer: 0

Question: And the “maximum response: Wild running” value (WT mice; CBDV 20 mg/kg acute, n = 6)?
Answer: 1

Question: And the “maximum response: Clonic seizure” value (WT mice; CBDV 100 mg/kg acute, n = 6)?
Answer: 0

Question: What about the “maximum response: Death (number of mice)” value (WT mice; CBDV 100 mg/kg acute, n = 6) of the same molecule?
Answer: 0

Question: And the “maximum response: Tonic seizure” value (WT mice; CBDV 100 mg/kg acute, n = 6)?
Answer: 0

Question: And the “maximum response: Wild running” value (WT mice; CBDV 100 mg/kg acute, n = 6)?
Answer: 0

Question: And the survival rate (MeCP2 KO mice [2]; CBDV 200 mg/kg, PND 67, vehicle 25%)?
Answer: 75%

Question: And the “survival measured at PND 67 (FIG. 5)” value (MeCP2 KO mice [2]; all three doses (2, 20, 200 mg/kg))?
Answer: increase survival

Question: What about the “total symptom score (FIG. 8)” value (MeCP2 KO mice [3]; 2 mg/kg, PND 45, 47, 49, 55, 56, 57, 58, 60 and 64, KO mice) of the same molecule?
Answer: significantly improved total symptom score at every time point

Question: What about the “breathing score (FIG. 6B)” value (MeCP2 KO mice [3]; 2 mg/kg, PND 56 to 60, KO mice) of the same molecule?
Answer: significantly improve breathing

Question: What about the “tremor score (FIG. 6A)” value (MeCP2 KO mice [3]; 2 mg/kg, PND 63, KO mice) of the same molecule?
Answer: still protective

Question: What about the “general conditions (coat and eyes) (FIG. 7A)” value (MeCP2 KO mice [3]; 20 mg/kg, KO mice) of the same molecule?
Answer: significantly effective only at the earlier time point (PND 52)

Question: What about the “breathing score (FIG. 6B)” value (MeCP2 KO mice [3]; 20 mg/kg, PND 57, KO mice) of the same molecule?
Answer: significant effect

Question: What about the “hindlimb clasping score (FIG. 6C)” value (MeCP2 KO mice [3]; 200 mg/kg, KO mice) of the same molecule?
Answer: did not significantly affect

Question: And the “total symptom score (FIG. 8)” value (MeCP2 KO mice [3]; 200 mg/kg, KO mice)?
Answer: exerted beneficial effect at a later time point (PND 47) and its protective effect was evident until PND 58

Question: What about the “gait score (FIG. 6D)” value (MeCP2 KO mice [3]; 200 mg/kg, PND 53 to 57, KO mice) of the same molecule?
Answer: significantly improved gait

Question: What about the “tremor score (FIG. 6A)” value (MeCP2 KO mice [3]; 200 mg/kg, PND 55 and 63, KO mice) of the same molecule?
Answer: still able to reduce tremors

Question: And the “breathing score (FIG. 6B)” value (MeCP2 KO mice [3]; 200 mg/kg, PND 57 and 60, KO mice)?
Answer: effective

Question: What about the “general conditions (coat and eyes) (FIG. 7A)” value (MeCP2 KO mice [3]; 2 and 200 mg/kg, PND 52-64, KO mice) of the same molecule?
Answer: significantly improved

Question: What about the “mobility score (FIG. 7B)” value (MeCP2 KO mice [3]; KO mice) of the same molecule?
Answer: reached statistical significance only at PND 64

Question: And the “total symptom score (FIG. 8)” value (MeCP2 KO mice [3]; all three doses, KO mice vs KO-vehicle)?
Answer: delay and attenuate the appearance of the phenotype

Question: What about the “tremor score (FIG. 6A)” value (MeCP2 KO mice [3]; all three doses, PND 45-49, KO mice) of the same molecule?
Answer: significantly delaying and reducing tremors

Question: And the “hindlimb clasping score (FIG. 6C)” value (MeCP2 KO mice [3]; lower doses (2, 20 mg/kg), PND 47 and 49, KO mice)?
Answer: significantly attenuate hindlimb clasping

Question: And the “clasping duration (FIG. 11)” value (Ube3am-/p+ (AS) mice)?
Answer: significantly reduced clasping duration
